Test results from patent publication US20240041830A1, “CIRCULATING BIOMARKERS OF RESPONSE TO PD-1/PD-L1 BLOCKADE AND GSK-3 INHIBITION” (Brown University, priority 2022, published 2024).

Tested on: tumor biopsies (colorectal cancer, pancreatic cancer)
Assay: GeoMx Digital Spatial Profiling of patient tumor biopsies
Type: in vivo, human
Excerpt: Digital spatial profiling. An Agilent Technologies hybridization oven was used for baking tissue onto slides (Agilent, Santa Clara, CA, USA). A NanoString GeoMx® Digital Spatial Profiler (DSP) instrument (NanoString, Seattle, WA, USA) was used to scan slides, identify regions of interest (ROIs), and collect photocleavable barcodes according to manufacturer instructions. A custom panel was designed to include the following proteins: Ms IgG1, Ms IgG2a, Rb IgG, GAPDH, Histone H3, S6, Beta-2-microglobulin, CD31, CD45, Ki-67, ARG1, CD11 b, CD11 c, CD14, CD163, CD39, CD40, CD68, HLA-DR, GZMB, CD20, CD3, CD34, CD4, CD56, CD66b, CD8, Foxp3, Fibronectin, 4-1BB, B7-H3, CTLA4, GITR, IDO1, LAG3, OX40L, STING, Tim-3, VISTA, Bcl-2, ER-α, EpCAM, Her2, MART1, NY-ESO-1, PR, PTEN, PanCk, SMA, CD127, CD25, CD27, CD44, CD45RO, CD80, ICOS, PD-1, PD-L1, and PD-L2. An Eppendorf MasterCycler Gradient Thermal Cycler was used to generate the Illumina sequencing libraries from the photocleaved tags. (Eppendorf, Hamburg, Germany). An Agilent Fragment Analyzer (RRID: SCR_019417) was used for library size distribution analysis with a high-sensitivity NGS Fragment Kit (Cat #DNF-474-0500, Agilent, Santa Clara, CA, USA). qPCR for quantification was run using an Illumina-compatible KAPA Library Quantification Kits (ROX Low) (cat #KK4873) on an Applied Biosystems ViiA 7 Real-Time qPCR/PCR Thermal Cycler System (Applied Biosystems, San Francisco, CA, USA) and was analyzed using QuantStudio software (RRID: SCR_018712). Sequencing was performed using a NextSeq 500/550 High Output Kit v2.5 (75 Cycles) kit (cat #20024906) on an Illumina Sequencing NextSeq 550 System (RRID: SCR_016381, Illumina, San Diego, CA, USA). The initial annotated dataset went through quality control (QC) to check if housekeeper genes and background (isotype) control molecules were themselves correlated with the predictors of interest. Every ROI was tested for raw sequencing reads (segments with <1000 raw reads were removed), % sequencing saturation, defined as (1-deduplicated reads/aligned reads)%, segments below ˜50% were not analyzed), and nuclei count per segment, for which >100 nuclei per segment is generally recommended. Both immunoglobulins (lgGs) and housekeeper genes were highly correlated with one another. Signal to noise (SNR) ratio was calculated using background probes and all probes were detected above the background in at least one ROI. data were normalized based on background IgG expression and all normalization factors were well distributed. Data analysis and visualization were generated using R (RRID: SCR_001905; R Development Core Team, 2020).
PanCK+ expression of immunosuppressive CD39 negatively correlated with time-on-treatment (Tx time) while CD45+ expression of monocyte/macrophage marker CD163 positively correlated with Tx time. The inventors used GeoMx Digital Spatial Profiling (DSP) technology to profile the expression of fifty-nine proteins in tumor biopsies (N=12) from patients treated with elraglusib (N=7). A total of 42% (N=5) of the tumor biopsies analyzed were collected near or before treatment start (pre-treatment) and 58% (N=7) of the biopsies analyzed were collected from post-treatment (average time-on-treatment (Tx time) at post-treatment biopsy: 270 days) (FIG. 7A). Primary tumor types included colorectal cancer (N=4, 33%) and pancreatic cancer (N=8, 67%), while metastatic biopsy tissue sites included lung (N=2, 17%), liver (N=7, 58%), rectum (N=2, 17%), and pleura (N=1, 8%). the inventors analyzed five paired tumor biopsies ([…], 83%), and two unpaired biopsies (N=2 slides total, 17%). Half (N=6, 50%) of the tumor sections were needle biopsies and half (N=6, 50%) were tissue biopsies. All patients included in this analysis were considered responders based on the definition used in the Phase 1 trial that treatment response is equal to disease control greater than 16 weeks. […]

[1] = CD45+ regions, post- vs pre-treatment biopsies
[2] = tumor-infiltrating CD45+ segments, post- vs pre-treatment

In the case of `Cn1cc(C2=C(c3coc4ccc(F)cc34)C(=O)NC2=O)c2cc3c(cc21)OCO3` [elraglusib], the “CD11 b protein expression” value [1] is reported as “decreased”, the “CD11c protein expression” value [1] is reported as “decreased” and the CD40 protein expression [1] is reported as “decreased”. For the same compound, the CD66b protein expression [1] was “decreased”, the CD68 protein expression [1] was “decreased” and the CD80 protein expression [1] was “decreased”. The IDO1 protein expression [1] was “decreased”, the LAG3 protein expression [1] was “decreased” and the PD-1 protein expression [1] was “decreased”. The PD-L1 protein expression [1] was “decreased”, the PD-L2 protein expression [1] was “decreased” and the VISTA protein expression [1] was “decreased”. For the same compound, the PD-L1 expression (PanCK+ segments, post- vs pre-treatment biopsies) was “downregulation”, the ARG1 protein expression [2] was “reduced” and the B2M protein expression [2] was “reduced”. The B7-H3 protein expression [2] was “elevated”, the CD11c protein expression [2] was “reduced” and the CD34 protein expression [2] was “reduced”. For the same compound, the CD44 protein expression [2] was “reduced”, the CD45R0 protein expression [2] was “reduced” and the CD56 protein expression [2] was “reduced”. The CD66b protein expression [2] was “reduced”, the CD68 protein expression [2] was “reduced” and the CD80 protein expression [2] was “reduced”. The CD127 protein expression [2] was “elevated”, the CTLA4 protein expression [2] was “elevated” and the GITR protein expression [2] was “reduced”. For the same compound, the HLA-DR protein expression [2] was “reduced”, the IDO1 protein expression [2] was “reduced” and the Ki-67 protein expression [2] was “reduced”. The OX4OL protein expression [2] was “elevated”, the PD-1 protein expression [2] was “reduced” and the PD-L1 protein expression [2] was “reduced”. The PD-L2 protein expression [2] was “reduced”, the PTEN protein expression [2] was “reduced” and the VISTA protein expression [2] was “reduced”.
